According to paper PMC8982737, “Discovery of S-217622, a Noncovalent Oral SARS-CoV-2 3CL Protease Inhibitor Clinical Candidate for Treating COVID-19” (Journal of Medicinal Chemistry, 2022):
Values joined by “and” are separate entries in the source; they are usually repeats but may differ in a detail not shown here. Equal entries are not always repeated. Where two headings read alike, the source gives them in different places.

Legend:
SARS-CoV-2 3CL protease = SARS-CoV-2 3CL protease (Severe acute respiratory syndrome coronavirus 2, UniProt P0DTD1); experiment: biochemical; format: biochemical; conditions: for IC50: read-out: SARS-CoV-2 3CLpro IC50
HCoV-OC43 = experiment: microbe, parasite or virus in culture; format: cell-based
SARS-CoV-2 [1] = experiment: microbe, parasite or virus in culture; format: cell-based
SARS-CoV = experiment: microbe, parasite or virus in culture; format: cell-based; conditions: Severe acute respiratory syndrome coronavirus, VeroE6/TMPRSS2, read-out: EC50 against SARS-CoV
VeroE6/TMPRSS2 cells = conditions: African green monkey
MERS-CoV = experiment: microbe, parasite or virus in culture; format: cell-based; conditions: Middle East respiratory syndrome-related coronavirus, VeroE6/TMPRSS2, read-out: EC50 against MERS-CoV
HCoV-229E = experiment: microbe, parasite or virus in culture; format: cell-based; conditions: Human coronavirus 229E
[2] = male, Sprague-Dawley, rat, in vivo; for CL (total clearance): iv
[3] = both, human, microsomes, 0.5 h, 0.5 μM, pH 7.4
[4] = male, rat, microsomes, 0.5 h, 0.5 μM, pH 7.4
[5] = system: SARS-CoV-2 Gamma strain (hCoV-19/Japan/TY7-501/2021); format: in vivo, BALB/cAJcl mice
cathepsin G = target: T1, cathepsin G (Homo sapiens, UniProt P08311)
T1 sequence (P08311 21-255): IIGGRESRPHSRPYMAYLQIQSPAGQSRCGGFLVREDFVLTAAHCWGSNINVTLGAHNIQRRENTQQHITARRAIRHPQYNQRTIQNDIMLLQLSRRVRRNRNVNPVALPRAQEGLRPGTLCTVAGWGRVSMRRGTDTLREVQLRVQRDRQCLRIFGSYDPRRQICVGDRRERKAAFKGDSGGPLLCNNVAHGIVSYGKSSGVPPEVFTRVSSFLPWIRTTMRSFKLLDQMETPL

cathepsin D [6] = target: T2, cathepsin D (Homo sapiens, UniProt P07339); experiment: biochemical; conditions: read-out: Inhibitory activity
in vivo [7] = conditions: male, beagle, dog
Dog PK study = conditions: intravenous 0.1 mg/0.2 mL/kg, n = 2, nonfasted
HIV-1 protease = HIV-1 protease (Human immunodeficiency virus type 1 group M subtype B, UniProt P04585); experiment: Enzymatic inhibitory activity against HIV-1 protease; format: biochemical
chymotrypsin = experiment: Human protease enzyme assay: chymotrypsin; format: biochemical
[8] = mouse, in vivo
in vitro = conditions: African green monkey
thrombin = thrombin (Homo sapiens, UniProt P00734); conditions: at 100 μM
Rat PK study = conditions: oral 1 μmol/5 mL/kg, n = 2, nonfasted, listed as S-217622
cathepsin L = cathepsin L (Homo sapiens, UniProt P07711); experiment: Human protease enzyme assay: cathepsin L; format: biochemical
[9] = target: T3, human ether-a-go-go-related gene channel (Homo sapiens, UniProt Q12809); experiment: Human ether-a-go-go-related gene inhibition assay (patch clamp, CHO cells); format: cell-based; conditions: in vitro
T3 construct: expressed in transfected cells; host or cells: Chinese hamster ovary (CHO) cells

in vivo [10] = conditions: female, cynomolgus monkey
SARS-CoV-2 [11] = experiment: Cellular antiviral activity in the presence of mouse serum; format: cell-based; conditions: Severe acute respiratory syndrome coronavirus 2; extrapolated to 100% mouse serum; read-out: protein-adjusted-EC50 (PA-EC50)
cathepsin D [12] = target: T2, cathepsin D; conditions: at 100 μM
Monkey PK study = conditions: intravenous 0.1 mg/0.2 mL/kg, n = 2, nonfasted
caspase-2 = target: T4, caspase-2 (Homo sapiens, UniProt P42575)
T4 sequence (P42575 1-452): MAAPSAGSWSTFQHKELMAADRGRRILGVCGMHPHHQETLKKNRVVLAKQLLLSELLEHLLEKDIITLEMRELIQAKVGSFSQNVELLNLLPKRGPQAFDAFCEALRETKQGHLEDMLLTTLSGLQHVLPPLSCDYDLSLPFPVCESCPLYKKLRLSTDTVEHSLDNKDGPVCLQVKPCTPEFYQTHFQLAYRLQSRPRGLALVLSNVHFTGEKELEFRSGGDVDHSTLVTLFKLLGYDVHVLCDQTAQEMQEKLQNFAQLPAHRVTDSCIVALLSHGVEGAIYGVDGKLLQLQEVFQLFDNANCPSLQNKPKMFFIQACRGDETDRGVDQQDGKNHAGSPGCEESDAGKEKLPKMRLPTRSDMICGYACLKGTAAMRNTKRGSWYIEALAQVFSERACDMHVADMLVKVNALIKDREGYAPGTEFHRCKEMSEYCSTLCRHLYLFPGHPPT

[13] = Severe acute respiratory syndrome coronavirus 2, VeroE6/TMPRSS2, strain hCoV-19/Japan/QHN001/2020 (Alpha, B.1.1.7), mean, read-out: EC50 on cytopathic effects
[14] = Severe acute respiratory syndrome coronavirus 2, VeroE6/TMPRSS2, strain hCoV-19/Japan/QHN002/2020 (Alpha, B.1.1.7), mean, read-out: EC50 on cytopathic effects
[15] = Severe acute respiratory syndrome coronavirus 2, VeroE6/TMPRSS2, strain hCoV-19/Japan/QK002/2020 (Alpha, B.1.1.7), mean, read-out: EC50 on cytopathic effects
[16] = Severe acute respiratory syndrome coronavirus 2, VeroE6/TMPRSS2, strain hCoV-19/Japan/TY7-501/2021 (Gamma, P.1), mean, read-out: EC50 on cytopathic effects
[17] = Severe acute respiratory syndrome coronavirus 2, VeroE6/TMPRSS2, strain hCoV-19/Japan/TY7-503/2021 (Gamma, P.1), mean, read-out: EC50 on cytopathic effects
[18] = Severe acute respiratory syndrome coronavirus 2, VeroE6/TMPRSS2, strain hCoV-19/Japan/TY8-612/2021 (Beta, B.1.351), mean, read-out: EC50 on cytopathic effects
[19] = Severe acute respiratory syndrome coronavirus 2, VeroE6/TMPRSS2, strain hCoV-19/Japan/TY11-927-P1/2021 (Delta, B.1.617.2), mean, read-out: EC50 on cytopathic effects
[20] = Severe acute respiratory syndrome coronavirus 2, VeroE6/TMPRSS2, strain hCoV-19/Japan/TY38-873/2021 (Omicron, B.1.1.529), mean, read-out: EC50 on cytopathic effects

Sequence of cathepsin L (P07711 114-333): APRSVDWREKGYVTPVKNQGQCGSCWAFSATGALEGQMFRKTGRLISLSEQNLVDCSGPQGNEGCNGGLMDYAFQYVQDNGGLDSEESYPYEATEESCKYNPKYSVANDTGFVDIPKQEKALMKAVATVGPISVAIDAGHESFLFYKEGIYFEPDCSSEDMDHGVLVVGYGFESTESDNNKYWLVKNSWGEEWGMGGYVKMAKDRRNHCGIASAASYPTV
T2 sequence (P07339 65-412): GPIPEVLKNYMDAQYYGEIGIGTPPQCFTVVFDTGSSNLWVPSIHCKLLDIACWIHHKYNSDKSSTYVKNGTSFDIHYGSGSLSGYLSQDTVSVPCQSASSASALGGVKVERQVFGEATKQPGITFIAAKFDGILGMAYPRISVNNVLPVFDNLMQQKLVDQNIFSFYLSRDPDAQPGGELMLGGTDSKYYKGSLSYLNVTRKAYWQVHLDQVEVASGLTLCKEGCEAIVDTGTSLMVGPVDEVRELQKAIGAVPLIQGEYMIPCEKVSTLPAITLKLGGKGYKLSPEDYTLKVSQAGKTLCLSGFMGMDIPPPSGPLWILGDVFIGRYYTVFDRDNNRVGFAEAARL
T3 sequence (Q12809 whole entry): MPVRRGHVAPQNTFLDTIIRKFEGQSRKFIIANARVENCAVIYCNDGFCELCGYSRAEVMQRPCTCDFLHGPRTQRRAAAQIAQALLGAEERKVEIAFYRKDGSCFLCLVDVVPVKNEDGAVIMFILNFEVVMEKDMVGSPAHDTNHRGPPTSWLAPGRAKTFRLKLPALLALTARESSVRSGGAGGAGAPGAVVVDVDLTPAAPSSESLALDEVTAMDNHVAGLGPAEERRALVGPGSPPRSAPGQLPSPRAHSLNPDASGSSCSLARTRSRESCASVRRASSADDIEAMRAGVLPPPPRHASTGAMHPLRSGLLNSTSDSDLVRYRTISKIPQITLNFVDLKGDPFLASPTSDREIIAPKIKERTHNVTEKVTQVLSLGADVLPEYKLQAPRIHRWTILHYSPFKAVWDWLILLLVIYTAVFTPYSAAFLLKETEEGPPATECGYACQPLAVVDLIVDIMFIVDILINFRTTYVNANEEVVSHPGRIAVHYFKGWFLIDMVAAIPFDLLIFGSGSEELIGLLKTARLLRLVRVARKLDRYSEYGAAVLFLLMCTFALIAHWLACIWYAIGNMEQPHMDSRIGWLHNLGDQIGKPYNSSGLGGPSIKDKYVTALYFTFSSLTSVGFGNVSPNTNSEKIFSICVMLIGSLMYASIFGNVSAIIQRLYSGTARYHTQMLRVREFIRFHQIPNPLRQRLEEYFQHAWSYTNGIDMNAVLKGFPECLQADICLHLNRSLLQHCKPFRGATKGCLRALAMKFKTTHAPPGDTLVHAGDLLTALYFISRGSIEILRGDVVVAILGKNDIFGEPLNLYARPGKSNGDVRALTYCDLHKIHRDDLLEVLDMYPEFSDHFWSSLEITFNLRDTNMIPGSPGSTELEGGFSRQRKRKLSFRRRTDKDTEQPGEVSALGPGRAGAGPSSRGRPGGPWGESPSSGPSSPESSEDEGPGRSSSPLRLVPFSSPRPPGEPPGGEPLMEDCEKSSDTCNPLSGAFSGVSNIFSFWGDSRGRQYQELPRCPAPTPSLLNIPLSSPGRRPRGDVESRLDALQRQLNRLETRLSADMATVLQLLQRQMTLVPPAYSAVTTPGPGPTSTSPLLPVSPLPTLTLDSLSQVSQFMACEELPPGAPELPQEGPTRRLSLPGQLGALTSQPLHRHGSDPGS

Structure (SMILES): CNC(=O)Cn1c(=O)nc(Nc2cc3sc(C)nc3cc2C)n(Cc2cccc(F)c2)c1=O [Compound 18]
- IC50 (SARS-CoV-2 3CL protease): 29000 nM

Structure (SMILES): CCC(CC)COC(=O)[C@H](C)N[P@](=O)(OC[C@H]1O[C@@](C#N)(c2ccc3c(N)ncnn23)[C@H](O)[C@@H]1O)Oc1ccccc1 [Remdesivir, reference compound]
- EC90 (HCoV-OC43; Betacoronavirus 1, OC43, MRC5, read-out: EC90 against HCoV-OC43): 24 nM
- EC50 (SARS-CoV-2 [1]; [13]): 970 nM
- EC50 (SARS-CoV-2 [1]; [14]): 990 nM
- EC50 (SARS-CoV-2 [1]; [15]): 870 nM
- EC50 (SARS-CoV-2 [1]; [16]): 2100 nM
- EC50 (SARS-CoV-2 [1]; [17]): 1000 nM
- EC50 (SARS-CoV-2 [1]; [18]): 1200 nM
- EC50 (SARS-CoV-2 [1]; [19]): 1600 nM
- EC50 (SARS-CoV-2 [1]; [20]): 1100 nM
- EC50 (SARS-CoV-2 [1]; Severe acute respiratory syndrome coronavirus 2, VeroE6/TMPRSS2, read-out: EC50 on cytopathic effects): 1900 nM
- EC50 (SARS-CoV): 1300 nM
- CC50 (VeroE6/TMPRSS2 cells): > 100000 nM
- EC50 (MERS-CoV): 1500 nM
- EC50 (HCoV-229E; MRC5, read-out: EC50 against HCoV-229E): 41 nM

Structure (SMILES): CNC(=O)Cn1c(=O)[nH]/c(=N\c2ccc(OC(F)F)cc2C)n(Cc2cc(F)c(F)c(F)c2)c1=O [Compound 1, (4E)-2-(4-{[4-(Difluoromethoxy)-2-methylphenyl]imino}-2,6-dioxo-3-(3,4,5-trifluorobenzyl)-1,3,5-triazinan-1-yl)-N-methylacetamide]
- IC50 (SARS-CoV-2 3CL protease): 8600 nM
- CL (total clearance) [2]: 7.3 mL/min/kg
- Oral F (oral bioavailability) [2]: 111%

Structure (SMILES): CNC(=O)Cn1c(=O)[nH]/c(=N\c2ccc(OC)cc2C)n(Cc2cc(F)c(F)c(F)c2)c1=O [Compound 13]
- IC50 (SARS-CoV-2 3CL protease): 1900 nM

Structure (SMILES): CNC(=O)Cn1c(=O)[nH]/c(=N\c2ccc(OC)cc2)n(Cc2cc(F)c(F)c(F)c2)c1=O [Compound 14]
- IC50 (SARS-CoV-2 3CL protease): 2800 nM

Structure (SMILES): CNC(=O)Cn1c(=O)[nH]/c(=N\c2cc3cn(C)nc3cc2Cl)n(Cc2cc(F)c(F)c(F)c2)c1=O [Compound 2, (4E)-2-{4-[(6-Chloro-2-methyl-2H-indazol-5-yl)imino]-2,6-dioxo-3-(3,4,5-trifluorobenzyl)-1,3,5-triazinan-1-yl)-N-methylacetamide]
- EC50 (SARS-CoV-2 [1]; Severe acute respiratory syndrome coronavirus 2, VeroE6/TMPRSS2, molecular formula strings csv, read-out: VeroE6/TMPRSS2 EC50): 12500 nM
- IC50 (SARS-CoV-2 3CL protease): 96 nM
- improvement in enzymatic inhibitory activity (SARS-CoV-2 3CL protease; relative to hit compound 1): 90 fold
- HLM, percentage remaining after 30 min [3]: 94.8%
- RLM, percentage remaining after 30 min [4]: 94.3%
- CL (total clearance) [2]: 4.9 mL/min/kg
- Oral F (oral bioavailability) [2]: 29.6%

Structure (SMILES): CNC(=O)Cn1c(=O)nc(Nc2cc3sc(C)nc3cc2C)n(Cc2ccc(F)cc2)c1=O [Compound 19]
- IC50 (SARS-CoV-2 3CL protease): 16000 nM

Structure (SMILES): CNC(=O)Cn1c(=O)[nH]/c(=N\c2cc3sc(C)nc3cc2C)n(Cc2ccccc2)c1=O [Compound 16]
- IC50 (SARS-CoV-2 3CL protease): 58000 nM

Structure (SMILES): CNC(=O)Cn1c(=O)nc(Nc2cc3sc(C)nc3cc2C)n(Cc2cc(F)c(F)c(F)c2)c1=O [Compound 15]
- IC50 (SARS-CoV-2 3CL protease): 3500 nM

Structure (SMILES): CNC(=O)Cn1c(=O)[nH]/c(=N\c2cc3sc(C)nc3cc2C)n(Cc2ccccc2F)c1=O [Compound 17]
- IC50 (SARS-CoV-2 3CL protease): 35000 nM

Structure (SMILES): Cn1cnc(Cn2c(=O)[nH]/c(=N\c3cc4cn(C)nc4cc3Cl)n(Cc3cc(F)c(F)cc3F)c2=O)n1 [Compound 3, (6E)-6-[(6-Chloro-2-methyl-2H-indazol-5-yl)imino]-3-[(1-methyl-1H-1,2,4-triazol-3-yl)methyl]-1-(2,4,5-trifluorobenzyl)-1,3,5-triazinane-2,4-dione]
- lung viral titers ([5]; […], near lower limit of quantification): ~1.80
- effect on intrapulmonary (lung) viral titers ([5]; mouse, in vivo): reduced the intrapulmonary viral titers dose-dependently
- EC90 (HCoV-OC43; Betacoronavirus 1, OC43, MRC5, RT-qPCR, MRC-5 cells, mean, read-out: EC90 against HCoV-OC43): 74 nM
- IC50 (cathepsin G): > 100000 nM
- inhibition at 100 µM (cathepsin D [6]): < 50%
- clearance (in vivo [7]; iv, 0.1 mg/kg): 0.17 mL/min/kg
- bioavailability (in vivo [7]; po): 64.7%
- t1/2 (Dog PK study; listed as S-217622): ~30 h
- half-life (Dog PK study; male, beagle, in vivo, iv, 0.1 mg/kg, t1/2, dog): 29.5 h
- EC50 (SARS-CoV-2 [1]; [13]): 310 nM
- EC50 (SARS-CoV-2 [1]; [14]): 460 nM
- EC50 (SARS-CoV-2 [1]; [15]): 330 nM
- EC50 (SARS-CoV-2 [1]; [16]): 500 nM
- EC50 (SARS-CoV-2 [1]; [17]): 430 nM
- EC50 (SARS-CoV-2 [1]; [18]): 400 nM
- EC50 (SARS-CoV-2 [1]; [19]): 410 nM
- EC50 (SARS-CoV-2 [1]; [20]): 290 nM
- EC50 (SARS-CoV-2 [1]; Severe acute respiratory syndrome coronavirus 2, CPE inhibition assay, VeroE6/TMPRSS2 cells, read-out: VeroE6/TMPRSS2 EC50 (antiviral activity)): 370 nM
- IC50 (HIV-1 protease): > 100000 nM
- inhibition at 100 µM (HIV-1 protease; at 100 μM): < 50%
- IC50 (chymotrypsin): > 100000 nM
- EC50 (SARS-CoV): 210 nM
- simulated plasma concentration over time ([8]; BALB/cAJcl, 16 mg/kg): above the protein-adjusted-EC50
- plasma concentration [8]: increased dose-dependently
- CC50 (VeroE6/TMPRSS2 cells): > 100000 nM
- clastogenicity (TK6 cells): no safety concerns
- CC50 (in vitro): > 100000 nM
- Inhibitory activity (thrombin): no inhibitory activity
- Oral F (oral bioavailability) (Rat PK study): 97%
- IC50 (cathepsin L): > 100000 nM
- Inhibitory activity (cathepsin L; at 100 μM): no inhibitory activity
- inhibition at 100 µM (cathepsin L; at 100 μM, read-out: Inhibitory activity): < 50%
- ether-a-go-go-related gene inhibition [9]: no safety concerns
- clearance (in vivo [10]; iv, 0.1 mg/kg): 0.29 mL/min/kg
- bioavailability (in vivo [10]; po): 106%
- EC50 (SARS-CoV-2 [11]): 3.93 µM and 2.09 µg/mL
- Inhibitory activity (cathepsin D [12]): no inhibitory activity
- phototoxicity (BALB/3T3 cells): no safety concerns
- EC50 (MERS-CoV): 1400 nM
- half-life (Monkey PK study; female, cynomolgus monkey, in vivo, iv, 0.1 mg/kg, t1/2, monkey): 10 h
- t1/2 (Monkey PK study; monkey, listed as S-217622): approximately 10 h
- IC50 (caspase-2; caspase 2): > 100000 nM
- Inhibitory activity (caspase-2; caspase 2, at 100 μM): no inhibitory activity
- EC50 (HCoV-229E; MRC5, CPE, MRC-5 cells, mean, read-out: EC50 against HCoV-229E): 5500 nM
- CL (total clearance) [2]: 1.70 mL/min/kg
